Measured values published in article PMC6424957 (Scientific Reports, 2019).
Where “and” joins values, the source holds several entries; their conditions need not be identical. Identical values can stand only once.

Columns and labels:
[1] = system: isolated rat liver mitochondria; assay: Inhibition of iron-induced lipid peroxidation (TBARs); conditions: read-out: IC50 of Fe3+-induced LP, LP induced by 0.5 mM Fe3+, mean ± SEM, n ≥ 3
[2] = target: T1, peripheral anionic site (PAS) of EeAChE (Electrophorus electricus, UniProt O42275); assay type: binding; conditions: EeAChE 7 μM, propidium iodide 8 μM; for % Displacement of propidium iodide, 3 µM: compound 3 µM; for % Displacement of propidium iodide, 20 µM: compound 20 µM
T1 construct: from human erythrocyte and E. electricus (EeAChE) (type VI-S); purchased Sigma-Aldrich (Germany) type VI-S; host or cells: Electrophorus electricus tissue
T1 sequence (O42275 24-633): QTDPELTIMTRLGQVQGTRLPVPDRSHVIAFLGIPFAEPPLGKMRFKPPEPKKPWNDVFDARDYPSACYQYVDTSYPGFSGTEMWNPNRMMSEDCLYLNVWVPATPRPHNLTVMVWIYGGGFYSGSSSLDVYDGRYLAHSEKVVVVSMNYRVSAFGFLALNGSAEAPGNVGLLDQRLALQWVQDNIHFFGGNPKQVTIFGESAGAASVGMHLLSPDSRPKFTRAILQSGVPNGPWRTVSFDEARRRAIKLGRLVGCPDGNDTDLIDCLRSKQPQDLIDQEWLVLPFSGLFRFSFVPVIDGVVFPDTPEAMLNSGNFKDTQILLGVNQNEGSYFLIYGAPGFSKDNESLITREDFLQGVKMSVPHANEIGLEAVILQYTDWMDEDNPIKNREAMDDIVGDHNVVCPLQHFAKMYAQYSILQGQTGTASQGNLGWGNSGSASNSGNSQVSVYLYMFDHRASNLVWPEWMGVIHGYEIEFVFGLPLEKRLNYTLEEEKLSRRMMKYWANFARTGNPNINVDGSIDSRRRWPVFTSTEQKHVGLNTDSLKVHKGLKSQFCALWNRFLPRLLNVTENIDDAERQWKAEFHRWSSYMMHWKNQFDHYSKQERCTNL
Excerpt: The fluorescent assay used to evaluate competitive propidium iodide displacement from the PAS of AChE is commonly used as primary screening method of AChE pro-aggregation activity inhibitors. Propidium iodide is a selective ligand for the PAS of AChE responsible for Aβ binding.
EeAChE was used owing to its high degree of purification, high activity, and lower cost than human AChE. […] The fluorescence intensity of propidium iodide bound with AChE increases several times.
To determine the degree of displacement (% displacement) of propidium iodide from the PAS of AChE, EeAChE (final concentration 7 μM) was incubated with the test compound at a concentration of 3 and 20 μM in 1 mM Tris-HCl buffer pH 8.0, 25 °C for 15 min. Then, propidium iodide solution (final concentration 8 μM) was added, the samples were incubated for 15 min and the fluorescence spectrum (530 nm (excitation) and 600 nm (emission)) was taken. Donepezil and tacrine were used as reference compounds. The blank contained propidium iodide of the same concentration in 1 mM Tris-HCl buffer pH 8.0. The measurements were carried out in triplicate on a microplate reader FLUOStar Optima (BMG Labtech Germany).
The degree of displacement (% displacement) of propidium iodide from the peripheral anionic site of AChE was calculated by the following formula: %Displacement=100−(IFAChE+Propidium+inhibitor/IFAChE+Propidium)[…], where IFAChE + Propidium is the fluorescence intensity of the propidium associated with AChE in the absence of the test compound (taken as 100%), and IFAChE + Propidium + inhibitor is the fluorescence intensity of the propidium associated with AChE in the presence of the test compound.

[3] = Oxygen radical absorbance capacity assay (ORAC-FL); conditions: for ORAC TE value: ORAC-FL, AAPH, fluorescein, 37 °C, pH 7.4, Trolox taken as 1; for radical-scavenging activity, ORAC-FL method: result in words
Protocol: The ability of the conjugates to reduce the amount of peroxyl radicals as another characteristic of the antioxidant activity of the compounds was determined using the oxygen radical absorbance capacity by fluorescence (ORAC-FL) method using fluorescein (FL) as a fluorescent probe. The method is based on measuring the decrease in the intensity of fluorescence with time, which characterizes the degree of decay of the fluorescent probe under the influence of peroxyl radicals. In the presence of antioxidants, the degree of decay of the fluorescent probe decreases and, accordingly, the fluorescence time increases.
The ability of compounds to scavenge peroxyl radicals was characterized by the value of the Trolox equivalent (TE, μmol of Trolox per μmol of the tested compound), which is equal to the ratio of the Trolox concentration to the tested compound concentration having the same fluorescence intensity. Peroxyl radical scavenging capacity of Trolox is taken as one (1)[67],[68].
2,2′-Azobis-(amidinopropane) dihydrochloride (AAPH), (±)-6-hydroxy-2,5,7,8-tetramethylchromane-2-carboxylic acid (Trolox) and fluorescein (FL) were purchased from Sigma-Aldrich. The reaction was carried out at 37 °C in 75 mM K,Na phosphate buffer (pH 7.4), and the final reaction mixture was 200 µL. The tested compounds and Trolox standard were dissolved in DMSO to 10 mM and further diluted in 75 mM K,Na phosphate buffer (pH 7.4). […] The blank was composed of 20 µL 75 mM K,Na phosphate buffer (pH 7.4) containing 2% (v/v) DMSO, 120 µL FL and 60 µL AAPH, and was added in each assay. Antioxidant (the test compound or Trolox, 20 µL) and FL (120 µL, final concentration: 70 nM) solutions were placed in a black 96-well microplate and were pre-incubated for 15 min at 37 °C. AAPH solution (60 µL, final concentration 12 mM) was then added rapidly using a multichannel pipette. The fluorescence was recorded every minute for 100 min. A Trolox standard curve was also obtained in each assay. All reactions were carried out in triplicate and at least three different assays were performed for each sample.
Antioxidant curves (fluorescence vs. time) were first normalized to the curve of the blank (without antioxidant) corresponding to the same assay, and the area under the fluorescence decay curve (AUC) was calculated. The net AUC corresponding to a sample was calculated by subtracting the AUC corresponding to the blank. Regression equations were calculated by plotting the net AUC against the antioxidant concentration. The ORAC value was obtained by dividing the slope of the latter curve by the slope of the Trolox curve obtained in the same assay. […] Data were expressed as means ± SEM.

[4] = ABTS radical cation scavenging assay; conditions: for ABTS·+ scavenging activity, TEAC value: Trolox equivalent antioxidant capacity, ratio of slopes compound/Trolox; for ABTS·+ scavenging activity, TEAC value / IC50: 1 h incubation; for IC50: concentration reducing ABTS·+ by 50%; for radical-scavenging activity, ABTS method: result in words
Protocol: This assay is based on the production of a stable dark green ABTS cation-radical (ABTS^·+) by incubating ABTS ([2,2′-azino-bis(3-eth-ylbenzothiazoline-6-sulfonic acid diammonium salt)) with potassium persulfate. […] The ABTS radical-scavenging activity of the compounds was measured according to an established method[66] with some modifications, at 30 °С in the dark; incubation time was 1 hour. […] The results were expressed as TEAC values (Trolox equivalent antioxidant capacity) calculated by dividing the slope of ABTS^·+ concentration decrease versus the antioxidant concentration by the slope of the Trolox plot.
Radical scavenging activity of the compounds was assessed using an ABTS radical decolorization assay[66] with some minor modifications. ABTS (2,2′-azino-bis-(3-ethylbenzothiazoline-6-sulfonic acid) diammonium salt) was purchased from TCI (Tokyo, Japan); potassium persulfate (di-potassium peroxodisulfate) and Trolox (6-hydroxy-2,5,7,8-tetramethychroman-2-carboxylic acid were obtained from Sigma-Aldrich Chemical Co. (St. Louis, MO, USA). Ethanol was HPLC grade. Aqueous solutions were prepared using deionized water.
Trolox was used as the antioxidant standard. A 5 mM solution of Trolox was prepared in DMSO for use as stock. Fresh working solutions of known concentrations (1–100 μM) were prepared on the day of experiments and used for calibration and as positive controls for ABTS radical cation (ABTS^•+) scavenging activity. ABTS was dissolved in deionized water to a 7 mM concentration. […] Fresh working ABTS^•+ solution was prepared for each assay.
The radical scavenging capacity of the compounds was analyzed by mixing 10 μl of compound with 240 μl of ABTS^•+ working solution. […] Ethanol blanks were run in each assay. Values were obtained from three replicates of each sample and three independent experiments.
Antioxidant capacity as a Trolox equivalent (TEAC values) was determined as the ratio between the slopes obtained from the linear correlation for concentrations of test compounds and Trolox with absorbance of ABTS radical.

[5] = system: isolated rat liver mitochondria; assay: Mitochondrial membrane potential (safranine O); assay type: biochemical; conditions: 30 µM, 10-min incubation, mean ± SD, n ≥ 5; for ΔΨm, % depolarization, CI (g/m): energized with Complex-I substrates (glutamate, malate); for ΔΨm, % depolarization, CII (s/r): energized with succinate in the presence of rotenone
Excerpt: Mitochondria and the mitochondrial permeability transition (MPT) are key players in the cascades of events leading to cell death. Consequently, inhibition of the MPT is a promising target in neuroprotection. On the other hand, depolarization of mitochondria is widely used a predictor of toxicity[72] but depolarization connected with uncoupling of the respiratory chain or stimulation of electron flux can also be cytoprotective. Due to its redox-cycling capability, MB can restore the electron flux in the respiratory chain in the presence of inhibitors of complex-I[74]. […] Consequently, we measured the effect of our conjugates of MB and γ-carbolines on mitochondrial membrane potential under two conditions. (C1) Mitochondria were energized with NADH-dependent substrates of Complex-I (glutamate and malate). (CII) Mitochondria were energized with an FADH2-dependent substrate of Complex II (succinate) in the presence of rotenone, a Complex-I inhibitor. Conjugates (30 μM) were incubated with mitochondria and the effect on mitochondrial membrane potential was measured. For comparison, mitochondria were incubated with MB, MBH2, and Dimebon (30 μM each).
Safranine O (10 µM) was used as a membrane potential probe. Fluorescence intensity at 580 nm (excitation at 520 nm) was measured with Victor3 multi-well fluorescence plate reader (Perkin Elmer, Germany). Mitochondrial protein concentration was 0.2 mg/ml. The medium for measurements contained 75 mM sucrose, 225 mM mannitol, 10 mM K-HEPES, 0.02 mM EGTA, and 1 mM KH2PO4 (pH 7.4, 25 °C). After a 5-min incubation, 5 mM glutamate/malate or 5 mM succinate and 0.5 μM rotenone were added to produce the mitochondrial potential. Then the compounds (30 μM) or the same volume of vehicle (DMSO) were injected into the mitochondrial suspension. After 15–20 min, CaCl2 (12.5 μM) was added to each probe to induce the depolarization of mitochondria and after 5 min 0.5 µM carbonyl cyanide m-chlorophenyl hydrazone (CCCP) was added for maximum depolarization of mitochondria. The level of depolarization (ΔΨm) was calculated from the fluorescence value after a 10-min incubation with 30 µM of compounds (or vehicle) normalized between fluorescence measurements after substrate and CCCP additions.

| Compound | IC50 [1] [µM] | % Displacement of propidium iodide, 3 µM [2] | % Displacement of propidium iodide, 20 µM [2] | ORAC TE value [3] [µmol Trolox/ µmol comp.] | ABTS·+ scavenging activity, TEAC value [4] | IC50 [4] [µM] | ΔΨm, % depolarization, CI (g/m) [5] [%] | ΔΨm, % depolarization, CII (s/r) [5] [%] | radical-scavenging activity, ORAC-FL method [3] | radical-scavenging activity, ABTS method [4] |
| --- | --- | --- | --- | --- | --- | --- | --- | --- | --- | --- |
| Cc1ccc2c(c1)c1c(n2CCC(=O)N2c3ccc(N(C)C)cc3Sc3cc(N(C)C)ccc32)CCN(C(C)C)C1.Cl.Cl.Cl [Compound 6] | 0.58 ± 0.03 | 7.7 ± 0.5% | 30.0 ± 0.9% | 7.12 ± 0.64 | 0.96 ± 0.07 | 21.2 ± 1.75 | 8 ± 2 | 44 ± 5 | – | – |
| CCN1CCc2c(c3ccccc3n2CCC(=O)N2c3ccc(N(C)C)cc3Sc3cc(N(C)C)ccc32)C1.Cl.Cl.Cl [Compound 2] | 0.68 ± 0.07 | 12.9 ± 1.1% | 37.1 ± 2.0% | 8.80 ± 0.96 | 1.03 ± 0.07 | 19.1 ± 1.52 | 7 ± 1 | 48 ± 1 | – | – |
| CN(C)c1ccc2nc3ccc(=[N+](C)C)cc-3sc2c1 [MB, methylene blue, reference compound] | 4 ± 0.6 | 20% and 20.9 ± 1.9% | 40% and 40.8 ± 3.7% | – | – | – | 14 ± 7 | 40 ± 9 | not detectable | not detectable |
| CCN1CCc2c(c3cc(C)ccc3n2CCC(=O)N2c3ccc(N(C)C)cc3Sc3cc(N(C)C)ccc32)C1.Cl.Cl.Cl [Compound 4] | 0.71 ± 0.01 | 11.8 ± 0.6% | 37.6 ± 1.8% | 9.82 ± 0.79 | 0.99 ± 0.08 | 20.5 ± 2.05 | 9 ± 1 | 43 ± 3 | – | – |
| Cc1ccc2c(c1)c1c(n2CCC(=O)N2c3ccc(N(C)C)cc3Sc3cc(N(C)C)ccc32)CCN(C)C1 [Compound 3] | 2.29 ± 0.47 | 8.1 ± 0.7% | 35.6 ± 1.5% | 7.44 ± 0.74 | 0.79 ± 0.06 | 27.5 ± 1.64 | 29 ± 11 | 67 ± 2 | – | – |
| CN1CCc2c(c3cc(F)ccc3n2CCC(=O)N2c3ccc(N(C)C)cc3Sc3cc(N(C)C)ccc32)C1 [Compound 7] | 3.2 ± 0.4 | 6.7 ± 0.5% | 29.8 ± 2.1% | 10.93 ± 0.98 | 1.08 ± 0.08 | 19 ± 2.28 | 13 ± 3 | 67 ± 1 | – | – |
| CCCN1CCc2c(c3cc(C)ccc3n2CCC(=O)N2c3ccc(N(C)C)cc3Sc3cc(N(C)C)ccc32)C1.Cl.Cl.Cl [Compound 5] | 0.75 ± 0.01 | 14.2 ± 0.9% | 35.1 ± 0.9% | 7.70 ± 0.84 | 0.99 ± 0.05 | 19.6 ± 1.82 | 17 ± 2 | 69 ± 2 | – | – |
| CN(C)c1ccc2c(c1)Sc1cc(N(C)C)ccc1N2 [MBH2, leucomethylene blue, reference compound] | 1.58 ± 0.49 | 17.7 ± 1.8% | 36.9 ± 3.3% | – | – | – | – | 18 ± 1 | not detectable | not detectable |
| CN1CCc2c(c3ccccc3n2CCC(=O)N2c3ccc(N(C)C)cc3Sc3cc(N(C)C)ccc32)C1.Cl.Cl.Cl [Compound 1] | 1.45 ± 0.29 | – | – | 7.28 ± 0.65 | 0.63 ± 0.045 | 35.4 ± 3.4 | 20 ± 1 | 64 ± 2 | – | – |
